Legend:
Experiment in all cases: relative viability (nuclei count vs DMSO), 5 days (fraction); higher = more cells survive
Seliciclib + Tozasertib = compound: CC[C@H](CO)Nc1nc(NCc2ccccc2)c2ncn(C(C)C)c2n1 [Seliciclib] + Cc1cc(Nc2cc(N3CCN(C)CC3)nc(Sc3ccc(NC(=O)C4CC4)cc3)n2)n[nH]1 [Tozasertib] (partner 0.1 µM)
Method in brief: (§1)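 Lung cancer cell lines were pin-tool dosed in 1536-well plates on the day after seeding, with either a lone drug or a fixed anchor-drug dose plus five library-drug doses (not always all listed) in √10 steps. Nuclei were counted on 4× images after 5 days. Relative viability is the ratio of treated-well to vehicle-well nuclei counts, with each value a median of duplicate plates.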

Seliciclib + AZD7762 = compound: CC[C@H](CO)Nc1nc(NCc2ccccc2)c2ncn(C(C)C)c2n1 [Seliciclib] + NC(=O)Nc1cc(-c2cccc(F)c2)sc1C(=O)N[C@H]1CCCNC1 [AZD7762] (partner 0.2 µM)
Method in brief: as §1

Seliciclib + Trametinib = compound: CC[C@H](CO)Nc1nc(NCc2ccccc2)c2ncn(C(C)C)c2n1 [Seliciclib] + CC(=O)Nc1cccc(-n2c(=O)n(C3CC3)c(=O)c3c(Nc4ccc(I)cc4F)n(C)c(=O)c(C)c32)c1 [Trametinib] (partner 0.02 µM)
Method in brief: as §1

Seliciclib = compound: CC[C@H](CO)Nc1nc(NCc2ccccc2)c2ncn(C(C)C)c2n1 [Seliciclib]
Method in brief: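 Lung cancer cell lines were seeded into 1536-well plates, kept overnight at 37 °C and pinned with five library-drug doses (not always all listed) spaced by √10. After 5 days, nuclei were Hoechst-stained, imaged at 4× and counted with MetaXpress. Viability is treated-well nuclei over vehicle-well nuclei, taken as a median across plates. Plates needed control CV below 25% and at least one doubling.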

Cell Line	relative viability (Seliciclib + Tozasertib; first compound 0.08 µM)	relative viability (Seliciclib + Tozasertib; first compound 0.253 µM)	relative viability (Seliciclib + Tozasertib; first compound 0.8 µM)	relative viability (Seliciclib + Tozasertib; first compound 2.53 µM)	relative viability (Seliciclib + Tozasertib; first compound 8 µM)	relative viability (Seliciclib + AZD7762; first compound 0.08 µM)	relative viability (Seliciclib + AZD7762; first compound 0.253 µM)	relative viability (Seliciclib + AZD7762; first compound 0.8 µM)	relative viability (Seliciclib + AZD7762; first compound 2.53 µM)	relative viability (Seliciclib + AZD7762; first compound 8 µM)	relative viability (Seliciclib + Trametinib; first compound 0.08 µM)	relative viability (Seliciclib + Trametinib; first compound 0.253 µM)	relative viability (Seliciclib + Trametinib; first compound 0.8 µM)	relative viability (Seliciclib + Trametinib; first compound 2.53 µM)	relative viability (Seliciclib + Trametinib; first compound 8 µM)	relative viability (Seliciclib; 0.08 µM)	relative viability (Seliciclib; 0.253 µM)	relative viability (Seliciclib; 0.8 µM)	relative viability (Seliciclib; 2.53 µM)	relative viability (Seliciclib; 8 µM)
NCI-H838	0.252	0.257	0.304	0.25	0.253	0.922	0.966	0.877	0.939	0.861	0.516	0.485	0.523	0.449	0.451	0.945	0.956	0.944	0.926	0.805
NCI-H1437	0.425	0.431	0.405	0.4	0.352	1.06	1.19	1.17	0.999	1.08	0.5	0.551	0.562	0.398	0.401	0.965	1.12	0.968	0.95	0.872
NCI-H1793	0.329	0.337	0.333	0.501	0.234	0.51	0.45	0.547	0.792	1.09	0.364	0.433	0.461	0.411	0.291	0.86	0.771	0.785	0.859	0.764
SW 900	0.79	0.689	0.488	0.401	0.307	0.537	0.616	0.704	0.647	0.559	0.632	0.833	0.734	0.514	0.524	0.9	0.994	1.09	0.744	0.668
LCLC-103H	0.443	0.583	0.532	0.434	0.399	0.793	0.676	0.65	0.696	0.74	0.666	0.711	0.647	0.681	0.682	1	0.934	0.929	0.836	0.914
NCI-H441	0.729	0.598	0.704	0.513	0.406	1.1	1.09	0.979	1.28	0.994	0.563	0.552	0.557	0.241	0.454	1.07	1.01	1.06	0.783	0.566
BEN	0.451	0.481	0.585	0.502	0.468	0.808	0.584	0.694	0.672	0.61	0.976	0.809	1.1	0.991	1.04	1.04	0.82	1.03	0.907	0.817
LC-2-ad	0.55	0.479	0.429	0.426	0.438	0.839	0.882	0.791	0.741	0.853	0.9	0.976	0.867	0.907	0.79	1	1.14	0.973	0.846	0.888
RERF-LC-KJ	0.455	0.537	0.441	0.493	0.457	0.861	0.894	0.992	0.837	0.789	0.872	0.748	0.807	0.824	0.744	0.935	0.903	0.96	0.985	0.878
NCI-H1915	0.486	0.437	0.43	0.444	0.315	0.714	0.591	0.826	0.817	0.717	0.315	0.277	0.307	0.292	0.288	0.982	1.02	0.956	0.933	0.856
NCI-H596	0.862	–	0.849	1.03	0.865	1.12	–	1.17	1.19	0.993	0.814	–	0.75	0.837	0.58	1.01	–	0.948	0.991	0.872
NCI-H2126	0.868	0.823	0.846	0.676	0.736	1.04	0.987	0.994	0.822	0.909	0.581	0.54	0.623	0.525	0.449	0.965	0.931	0.961	0.663	0.829
LXF-289	0.189	0.192	0.203	0.18	0.158	1.09	1.33	1.06	1.16	0.993	0.65	0.725	0.646	0.661	0.627	0.983	1.2	0.972	1.02	0.91
HCC-44	0.858	1.19	0.969	0.861	0.791	1.02	1.05	1.12	1.12	0.944	1.09	1.17	0.999	0.933	1.06	1	1.05	1.01	0.931	0.899
NCI-H358	0.11	0.0892	0.112	0.104	0.11	0.55	0.577	0.235	0.462	0.434	0.137	0.124	0.143	0.104	0.0859	0.932	0.922	0.785	0.621	0.633
PC-14	0.551	0.608	0.55	0.574	0.445	0.358	0.35	0.358	0.354	0.331	0.788	0.529	0.719	0.721	0.532	0.995	1.03	1.02	0.987	0.859

Cell Line	relative viability (Seliciclib + Tozasertib; first compound 0.08 µM)	relative viability (Seliciclib + Tozasertib; first compound 0.253 µM)	relative viability (Seliciclib + Tozasertib; first compound 0.8 µM)	relative viability (Seliciclib + Tozasertib; first compound 2.53 µM)	relative viability (Seliciclib + Tozasertib; first compound 8 µM)	relative viability (Seliciclib + AZD7762; first compound 0.08 µM)	relative viability (Seliciclib + AZD7762; first compound 0.253 µM)	relative viability (Seliciclib + AZD7762; first compound 0.8 µM)	relative viability (Seliciclib + AZD7762; first compound 2.53 µM)	relative viability (Seliciclib + AZD7762; first compound 8 µM)	relative viability (Seliciclib + Trametinib; first compound 0.08 µM)	relative viability (Seliciclib + Trametinib; first compound 0.253 µM)	relative viability (Seliciclib + Trametinib; first compound 0.8 µM)	relative viability (Seliciclib + Trametinib; first compound 2.53 µM)	relative viability (Seliciclib + Trametinib; first compound 8 µM)	relative viability (Seliciclib; 0.08 µM)	relative viability (Seliciclib; 0.253 µM)	relative viability (Seliciclib; 0.8 µM)	relative viability (Seliciclib; 2.53 µM)	relative viability (Seliciclib; 8 µM)
HOP-62	0.388	0.354	0.38	0.377	0.244	0.63	0.407	0.394	0.923	0.822	0.377	0.302	0.377	0.418	0.431	1.04	1.1	1.08	1	0.94
NCI-H1944	0.263	0.242	0.235	0.225	0.234	0.521	0.473	0.503	0.584	0.636	0.399	0.277	0.428	0.48	0.368	0.983	0.947	0.898	0.73	0.707
NCI-H2170	0.728	0.707	0.589	0.83	0.507	0.841	–	0.877	0.979	0.921	0.85	–	0.884	0.927	0.888	0.93	0.697	0.897	0.997	0.946
NCI-H1666	0.684	0.696	0.623	0.561	0.428	0.862	0.959	0.936	0.793	0.818	0.829	0.761	0.792	0.849	0.75	0.955	1.13	1.01	0.866	0.829
NCI-H1355	0.586	0.517	0.513	0.506	0.388	0.805	0.623	0.799	0.832	0.975	0.391	0.336	0.477	0.474	0.415	0.977	0.959	0.89	0.905	0.959
HCC-827	0.415	0.413	0.42	0.383	0.324	0.211	0.19	0.217	0.209	0.172	0.494	0.519	0.525	0.533	0.365	1.04	1.07	1.01	1.05	0.907
HARA	0.0937	0.0958	0.111	0.782	0.0956	0.348	0.293	0.381	0.596	0.908	0.675	0.719	0.565	0.828	0.44	0.927	1.08	1.01	0.945	0.844
HCC-366	0.135	0.0662	0.155	0.387	0.0931	0.291	0.274	0.388	0.409	0.481	0.332	0.253	0.368	0.317	0.239	1.01	1.06	0.998	1.03	0.938
NCI-H322M	0.49	0.497	0.474	0.462	0.435	0.594	0.646	0.637	0.692	0.907	0.536	0.487	0.495	0.473	0.399	0.932	1.09	0.798	0.799	0.753
NCI-H2347	0.632	0.517	0.522	0.645	0.547	0.817	0.759	0.745	0.763	0.865	0.259	0.323	0.331	0.278	0.279	0.982	1.08	0.936	0.994	0.95
NCI-H1975	0.777	0.769	0.704	0.681	0.296	0.684	0.628	0.741	0.613	0.758	0.383	0.215	0.439	0.266	0.334	0.949	0.822	0.993	0.8	0.843
NCI-H2342	0.665	0.404	0.395	0.538	0.538	0.565	0.509	0.486	0.404	0.427	0.705	0.598	0.865	0.752	0.887	0.967	0.74	0.947	0.842	0.905
NCI-H522	0.711	0.523	0.547	0.49	0.614	0.862	0.717	0.863	0.952	0.873	0.735	0.672	0.778	0.673	0.713	0.944	0.94	1.05	0.847	0.727
A-427	0.245	0.202	0.187	0.2	0.192	0.763	0.912	0.853	1.13	0.998	0.767	0.816	0.797	0.678	0.586	1.03	1.02	1.02	0.883	0.967
LCLC-97TM1	0.355	0.248	0.243	0.168	0.153	0.232	0.258	0.432	–	0.392	0.244	0.173	0.226	0.178	0.155	0.984	1	0.911	0.473	0.651
HCC-15	0.403	0.502	0.372	0.443	0.331	1.09	1.37	1.22	1.19	1.02	0.393	0.343	0.369	0.37	0.357	1.04	1.06	0.925	0.926	0.764
